Test results as given in ChEMBL document CHEMBL1201862, “PubChem BioAssay data set” (2004).
“And” between values parts separate entries of the source, which are not always exact repeats. Equal values may be shown once. The source made the active and inactive calls.

Assays:
HEK293 [1] = experiment: cells; assay type: functional, cell-based; details: Homo sapiens
[2] = target: T1, Nucleotide-binding oligomerization domain-containing protein 1 (Homo sapiens, UniProt Q9Y239); experiment: blockers of NOD1 pathway activity – revised, SAR follow-up (AID 2333); assay type: functional
T1 sequence (Q9Y239 whole entry): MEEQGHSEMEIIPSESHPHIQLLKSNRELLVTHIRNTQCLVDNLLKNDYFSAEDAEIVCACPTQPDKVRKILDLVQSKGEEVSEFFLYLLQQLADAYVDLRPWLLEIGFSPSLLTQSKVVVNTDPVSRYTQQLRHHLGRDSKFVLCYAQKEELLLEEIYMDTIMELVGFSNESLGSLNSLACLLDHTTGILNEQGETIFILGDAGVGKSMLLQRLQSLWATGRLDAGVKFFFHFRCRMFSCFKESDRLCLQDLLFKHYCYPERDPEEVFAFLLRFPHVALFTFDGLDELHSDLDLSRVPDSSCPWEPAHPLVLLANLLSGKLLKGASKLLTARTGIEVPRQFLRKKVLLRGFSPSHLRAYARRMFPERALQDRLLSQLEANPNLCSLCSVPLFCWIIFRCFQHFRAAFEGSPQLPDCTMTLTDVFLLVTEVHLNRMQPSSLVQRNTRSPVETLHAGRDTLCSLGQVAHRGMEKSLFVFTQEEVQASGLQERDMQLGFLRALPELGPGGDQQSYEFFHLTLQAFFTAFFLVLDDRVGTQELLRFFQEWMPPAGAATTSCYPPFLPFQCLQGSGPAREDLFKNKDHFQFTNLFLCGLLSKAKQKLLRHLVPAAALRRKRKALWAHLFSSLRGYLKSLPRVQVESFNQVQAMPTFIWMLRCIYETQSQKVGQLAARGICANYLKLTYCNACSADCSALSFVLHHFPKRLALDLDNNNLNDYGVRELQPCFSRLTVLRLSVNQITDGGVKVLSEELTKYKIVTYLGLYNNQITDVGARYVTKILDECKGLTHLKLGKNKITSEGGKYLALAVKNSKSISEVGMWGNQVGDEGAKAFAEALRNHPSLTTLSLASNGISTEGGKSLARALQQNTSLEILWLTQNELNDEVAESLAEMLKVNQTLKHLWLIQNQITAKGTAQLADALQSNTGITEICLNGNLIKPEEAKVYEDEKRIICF

HEK293 [3] = experiment: cells; assay type: functional, cell-based; details: Homo sapiens; remark: listed apart in the source
HEK293 [4] = experiment: inhibition of NOD1-driven NF-kB reporter – cell-based, luminescence, uHTS, primary screen (AID 1578); assay type: functional; details: Homo sapiens
HEK293 [5] = experiment: cells; details: Homo sapiens
Tumor necrosis factor = Tumor necrosis factor (Homo sapiens, UniProt P01375); experiment: analog potency on TNFa NF-kB signaling – cell-based, revised, SAR follow-up (AID 2337); assay type: functional
Sequence of Tumor necrosis factor (P01375 whole entry): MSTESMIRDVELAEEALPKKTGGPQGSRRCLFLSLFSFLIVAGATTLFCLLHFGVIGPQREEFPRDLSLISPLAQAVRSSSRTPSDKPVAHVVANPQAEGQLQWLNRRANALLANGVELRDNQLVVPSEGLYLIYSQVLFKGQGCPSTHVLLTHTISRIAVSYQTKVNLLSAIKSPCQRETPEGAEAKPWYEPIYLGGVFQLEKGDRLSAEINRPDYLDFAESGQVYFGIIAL

HEK293 [6] = experiment: NOD2 signaling inhibitors in MDP-stimulated cells, cell-based, uHTS, luminescence (AID 2001); assay type: functional; details: Homo sapiens
[7] = target: T2, Endoribonuclease toxin MazF (Escherichia coli K-12, UniProt P0AE70); experiment: activation of MazEF endoribonuclease cleavage – biochemical, fluorescence, single-stranded RNA substrate, uHTS hits, dose response (AID 588481); assay type: functional
T2 sequence (P0AE70 whole entry): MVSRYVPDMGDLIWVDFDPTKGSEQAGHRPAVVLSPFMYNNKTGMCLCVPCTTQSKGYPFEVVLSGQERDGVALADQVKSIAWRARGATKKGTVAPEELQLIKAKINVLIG

[8] = target: T2, Endoribonuclease toxin MazF; experiment: substrate-only fluorescence increase artefacts – biochemical, single-stranded RNase substrate, counter-screen for MazEF activator project, dose response (AID 588502); assay type: functional
[9] = NIH-3T3 fibroblast cytotoxicity, dose response, cytotoxicity control, cell-based, fluorescence, Alamar Blue, secondary assay (AID 2327); assay type: functional;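 also: NIH-3T3 mouse fibroblasts cultured with fluconazole at 8 µg/mL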
INS1 = experiment: INS-1E survival protection against cytokine death – cell-based, luminescence, retest, dose response (AID 449756); assay type: functional; details: Rattus norvegicus;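 also: cell death triggered by IL-1 beta plus TNF-alpha plus IFN-gamma mixture; protective hits raise ATP signal compared with cytokine alone wells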
[10] = fluconazole-exposed Candida albicans growth modulators – fluorescence, retest, confirmation (AID 2467); assay type: functional, cell-based
[11] = target: ATP-dependent molecular chaperone HSP82 (Candida albicans (strain WO-1) (Yeast), UniProt C4YTQ8); experiment: steroid-induced GRE reporter decrease in yeast – S. cerevisiae, luminescence, Hsp90 inhibitor project, dose response (AID 2400); assay type: functional, cell-based;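 also: beta-galactosidase luminescence from glucocorticoid response element reporter as proxy for Hsp90 function; inhibitor potency where signal loss means Hsp90 inhibition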
Sequence of ATP-dependent molecular chaperone HSP82 (C4YTQ8 whole entry): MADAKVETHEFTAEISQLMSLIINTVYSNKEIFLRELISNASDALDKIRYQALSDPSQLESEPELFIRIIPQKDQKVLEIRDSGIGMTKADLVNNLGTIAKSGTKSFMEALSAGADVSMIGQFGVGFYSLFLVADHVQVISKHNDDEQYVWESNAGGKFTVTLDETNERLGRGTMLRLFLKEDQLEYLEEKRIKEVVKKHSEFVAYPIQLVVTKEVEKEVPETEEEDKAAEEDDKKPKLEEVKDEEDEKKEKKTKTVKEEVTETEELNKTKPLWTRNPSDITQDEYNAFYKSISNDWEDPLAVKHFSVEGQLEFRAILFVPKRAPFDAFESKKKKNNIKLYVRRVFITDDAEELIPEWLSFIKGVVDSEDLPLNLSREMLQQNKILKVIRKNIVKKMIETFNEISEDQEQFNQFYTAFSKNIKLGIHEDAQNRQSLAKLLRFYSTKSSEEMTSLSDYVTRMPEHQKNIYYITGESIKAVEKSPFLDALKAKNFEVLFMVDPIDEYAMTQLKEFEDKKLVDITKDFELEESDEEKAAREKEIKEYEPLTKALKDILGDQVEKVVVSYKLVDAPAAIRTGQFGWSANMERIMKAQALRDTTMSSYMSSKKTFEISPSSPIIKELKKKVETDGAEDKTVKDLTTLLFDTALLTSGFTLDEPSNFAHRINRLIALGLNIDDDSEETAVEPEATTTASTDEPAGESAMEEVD

[12] = target: Serine/threonine-protein phosphatase (Candida dubliniensis (strain CD36 / CBS 7987 / NCPF 3949 / NRRLY-17841) (Yeast), UniProt B9W6M3); experiment: blockers of CaCl2-induced CDRE-lacZ signaling – S. cerevisiae, luminescence, secondary, dose response (AID 2388); assay type: functional, cell-based;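 also: yeast reporter cells carrying a calcineurin-responsive lacZ construct stimulated with calcium chloride; luminescent beta-galactosidase reporter signal in whole cells rather than isolated phosphatase activity; potency for inhibition where a drop in reporter signal means calcineurin blockade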
Sequence of Serine/threonine-protein phosphatase (B9W6M3 whole entry): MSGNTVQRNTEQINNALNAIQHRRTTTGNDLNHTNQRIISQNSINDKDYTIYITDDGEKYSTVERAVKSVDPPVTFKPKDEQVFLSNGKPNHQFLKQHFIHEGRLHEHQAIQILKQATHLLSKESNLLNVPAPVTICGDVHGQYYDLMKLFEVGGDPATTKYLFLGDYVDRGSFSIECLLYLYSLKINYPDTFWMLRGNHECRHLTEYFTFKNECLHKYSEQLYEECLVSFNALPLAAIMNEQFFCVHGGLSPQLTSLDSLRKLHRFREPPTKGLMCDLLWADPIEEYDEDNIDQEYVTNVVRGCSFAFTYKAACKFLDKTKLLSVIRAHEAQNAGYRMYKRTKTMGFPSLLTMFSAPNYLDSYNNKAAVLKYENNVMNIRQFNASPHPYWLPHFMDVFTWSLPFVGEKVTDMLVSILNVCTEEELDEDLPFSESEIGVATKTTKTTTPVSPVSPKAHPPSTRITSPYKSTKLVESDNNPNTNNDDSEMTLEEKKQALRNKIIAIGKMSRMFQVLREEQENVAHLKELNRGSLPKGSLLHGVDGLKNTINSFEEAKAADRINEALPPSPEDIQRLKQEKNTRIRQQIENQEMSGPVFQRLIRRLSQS

[13] = target: T3, Nuclear receptor subfamily 0 group B member 1 (Homo sapiens, UniProt P51843); experiment: Luminescence-based cell-based high throughput dose response assay for inhibitors of the orphan nuclear receptor subfamily 0, group B, member 1 (DAX1; NR0B1). [Related pubchem assays (depositor defined):AID504766, AID504790]; assay type: functional
T3 sequence (P51843 whole entry): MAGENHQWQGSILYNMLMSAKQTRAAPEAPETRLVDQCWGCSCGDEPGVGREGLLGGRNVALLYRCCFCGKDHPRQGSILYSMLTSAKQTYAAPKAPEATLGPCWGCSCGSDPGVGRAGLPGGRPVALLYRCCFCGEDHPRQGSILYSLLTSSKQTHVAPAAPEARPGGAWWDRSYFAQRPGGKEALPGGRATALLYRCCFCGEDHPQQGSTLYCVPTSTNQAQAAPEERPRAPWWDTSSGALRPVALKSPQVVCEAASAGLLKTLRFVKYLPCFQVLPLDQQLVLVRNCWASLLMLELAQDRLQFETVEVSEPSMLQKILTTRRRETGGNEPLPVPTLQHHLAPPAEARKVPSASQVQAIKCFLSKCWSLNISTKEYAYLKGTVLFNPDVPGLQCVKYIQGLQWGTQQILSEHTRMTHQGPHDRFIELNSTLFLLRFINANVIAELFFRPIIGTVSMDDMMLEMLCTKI

HEK293 [14] = experiment: cells; assay type: functional, cell-based; details: Homo sapiens; remark: listed apart in the source
[15] = target: T4, Dual specificity protein phosphatase 6 (Rattus norvegicus, UniProt Q64346); experiment: SAR analysis of inhibitors of MKP-3 - Set 2. [Related pubchem assays (depositor defined):AID1055, AID1661, AID425, AID553, AID566]; assay type: functional
T4 sequence (Q64346 whole entry): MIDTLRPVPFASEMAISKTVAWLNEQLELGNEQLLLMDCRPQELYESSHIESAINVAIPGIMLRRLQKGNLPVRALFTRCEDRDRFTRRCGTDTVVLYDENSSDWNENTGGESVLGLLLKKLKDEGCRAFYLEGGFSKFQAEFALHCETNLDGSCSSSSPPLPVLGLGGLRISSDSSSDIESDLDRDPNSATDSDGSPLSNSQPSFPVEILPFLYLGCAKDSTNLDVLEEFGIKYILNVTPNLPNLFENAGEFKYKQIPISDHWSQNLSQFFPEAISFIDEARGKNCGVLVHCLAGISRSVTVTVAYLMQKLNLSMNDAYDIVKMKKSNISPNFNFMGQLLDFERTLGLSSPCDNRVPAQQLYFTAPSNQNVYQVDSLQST

[16] = target: T5, Dual specificity protein phosphatase 3 (Homo sapiens, UniProt P51452); experiment: SAR VHR1 Fluorescent Assay for In Vitro dose response studies. [Related pubchem assays (depositor defined):AID1654, AID1661, AID1878, AID1992, AID2004, AID2070, AID2085]; assay type: functional
T5 sequence (P51452 whole entry): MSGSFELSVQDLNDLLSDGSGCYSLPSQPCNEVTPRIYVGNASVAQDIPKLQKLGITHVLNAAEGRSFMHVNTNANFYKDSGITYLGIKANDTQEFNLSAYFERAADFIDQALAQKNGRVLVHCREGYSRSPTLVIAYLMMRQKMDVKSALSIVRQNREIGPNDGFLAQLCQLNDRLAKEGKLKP

[17] = target: T5, Dual specificity protein phosphatase 3; experiment: SAR VHR1 Fluorescent Assay for In Vitro dose response studies Set 2. [Related pubchem assays (depositor defined):AID1654, AID1661, AID1878]; assay type: functional
[18] = target: T6, Tyrosine-protein phosphatase non-receptor type 7 (Homo sapiens, UniProt P35236); experiment: redox-active compounds inhibiting HePTP phosphatase – biochemical, fluorescence, mechanism study (AID 2068); assay type: functional
T6 sequence (P35236 whole entry): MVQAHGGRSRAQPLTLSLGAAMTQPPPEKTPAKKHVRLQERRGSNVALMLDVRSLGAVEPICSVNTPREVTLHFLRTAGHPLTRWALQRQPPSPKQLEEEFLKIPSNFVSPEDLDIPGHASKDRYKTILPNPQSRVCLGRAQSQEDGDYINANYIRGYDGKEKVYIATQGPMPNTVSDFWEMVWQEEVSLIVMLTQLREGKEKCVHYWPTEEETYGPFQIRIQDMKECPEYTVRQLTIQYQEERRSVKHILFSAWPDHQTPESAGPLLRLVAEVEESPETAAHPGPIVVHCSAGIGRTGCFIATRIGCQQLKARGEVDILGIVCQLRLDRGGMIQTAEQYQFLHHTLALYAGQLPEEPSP

[19] = target: T5, Dual specificity protein phosphatase 3; experiment: SAR VHR1 absorbance Assay for In Vitro dose response studies. [Related pubchem assays (depositor defined):AID1654, AID1661, AID1878, AID1992, AID2004]
[20] = target: T6, Tyrosine-protein phosphatase non-receptor type 7; experiment: inhibition of hematopoietic tyrosine phosphatase HePTP – biochemical, set 2, SAR follow-up (AID 449736); assay type: functional
[21] = target: T6, Tyrosine-protein phosphatase non-receptor type 7; experiment: SAR analysis of chemical inhibitors of HePTP using a Fluorescent assay - Set 2. [Related pubchem assays (depositor defined):AID1059, AID1077, AID1661, AID2085, AID521]; assay type: functional
[22] = target: DNA dC->dU-editing enzyme APOBEC-3A (Homo sapiens, UniProt P31941); experiment: A3A deaminase inhibition for selectivity – biochemical, dose response (AID 504722); assay type: functional
Sequence of DNA dC->dU-editing enzyme APOBEC-3A (P31941 whole entry): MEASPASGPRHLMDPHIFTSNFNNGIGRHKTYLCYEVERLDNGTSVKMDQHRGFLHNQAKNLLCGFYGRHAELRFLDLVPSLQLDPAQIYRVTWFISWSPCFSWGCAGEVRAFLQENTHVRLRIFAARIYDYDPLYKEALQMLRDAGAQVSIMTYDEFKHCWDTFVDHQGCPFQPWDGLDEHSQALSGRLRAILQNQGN

[23] = target: DNA dC->dU-editing enzyme APOBEC-3G (Homo sapiens, UniProt Q9HC16); experiment: Dose Response confirmation of small molecule APOBEC3G DNA Deaminase Inhibitors via a fluorescence-based single-stranded DNA deaminase assay. [Related pubchem assays (depositor defined):AID493012, AID493028]; assay type: functional
Sequence of DNA dC->dU-editing enzyme APOBEC-3G (Q9HC16 whole entry): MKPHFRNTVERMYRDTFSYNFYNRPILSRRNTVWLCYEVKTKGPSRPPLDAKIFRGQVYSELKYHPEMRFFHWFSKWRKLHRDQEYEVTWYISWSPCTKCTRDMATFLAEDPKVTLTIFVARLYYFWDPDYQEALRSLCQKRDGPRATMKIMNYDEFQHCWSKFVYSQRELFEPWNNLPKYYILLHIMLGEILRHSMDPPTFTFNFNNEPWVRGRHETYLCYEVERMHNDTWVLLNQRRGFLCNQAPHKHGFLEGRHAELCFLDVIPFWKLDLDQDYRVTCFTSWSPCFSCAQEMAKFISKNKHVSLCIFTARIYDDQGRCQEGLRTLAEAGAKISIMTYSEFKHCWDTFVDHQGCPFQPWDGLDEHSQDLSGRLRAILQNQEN

[24] = target: T4, Dual specificity protein phosphatase 6; assay type: functional
[25] = blockers of HIV-1 envelope-mediated cell-cell fusion – cherry-pick, dose response (AID 652057); assay type: functional, cell-based
[26] = blockers of HIV-1 ZM109 envelope-driven cell-cell fusion – HeLa effector, CEM target cells, luciferase, cherry-pick, dose response (AID 652058); assay type: functional, cell-based;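 also: luciferase signal from HIV-1 Env mediated cell-cell fusion of effector and target cells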
[27] = viability loss in CEM21 cells – cell-based, CellTiter-Glo luminescence, cherry-picked, cytotoxicity control for viral fusion inhibitor project, dose response (AID 652042); assay type: functional;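 also: potency for signal decrease meaning cytotoxicity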
[28] = off-target signal loss in HeLa-CEM21 co-culture – HeLa F-luc CTL cells, cherry-picked, counter-screen for HIV-1 Env fusion inhibitor project, dose response (AID 652040); assay type: functional, cell-based;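 also: potency for signal decrease marking cytotoxic or nonspecific inhibition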
[29] = HIV-1 AD8 envelope cell-cell fusion blockers – cherry-pick, dose response (AID 652062); assay type: functional, cell-based;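 also: luciferase signal from cell-cell fusion driven by HIV-1 clade B AD8 Env; potency is for inhibitors of fusion seen as a drop in luminescence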
[30] = target: T7, Polyadenylate-binding protein 1 (Homo sapiens, UniProt P11940); experiment: MLLE domain peptide-binding blockers, IC50 – biochemical, fluorescence polarization, FITC-PAM2 peptide, dose response (AID 602259); assay type: functional; details: read-out: IC50_Mean
T7 sequence (P11940 whole entry, the tested form may be a part): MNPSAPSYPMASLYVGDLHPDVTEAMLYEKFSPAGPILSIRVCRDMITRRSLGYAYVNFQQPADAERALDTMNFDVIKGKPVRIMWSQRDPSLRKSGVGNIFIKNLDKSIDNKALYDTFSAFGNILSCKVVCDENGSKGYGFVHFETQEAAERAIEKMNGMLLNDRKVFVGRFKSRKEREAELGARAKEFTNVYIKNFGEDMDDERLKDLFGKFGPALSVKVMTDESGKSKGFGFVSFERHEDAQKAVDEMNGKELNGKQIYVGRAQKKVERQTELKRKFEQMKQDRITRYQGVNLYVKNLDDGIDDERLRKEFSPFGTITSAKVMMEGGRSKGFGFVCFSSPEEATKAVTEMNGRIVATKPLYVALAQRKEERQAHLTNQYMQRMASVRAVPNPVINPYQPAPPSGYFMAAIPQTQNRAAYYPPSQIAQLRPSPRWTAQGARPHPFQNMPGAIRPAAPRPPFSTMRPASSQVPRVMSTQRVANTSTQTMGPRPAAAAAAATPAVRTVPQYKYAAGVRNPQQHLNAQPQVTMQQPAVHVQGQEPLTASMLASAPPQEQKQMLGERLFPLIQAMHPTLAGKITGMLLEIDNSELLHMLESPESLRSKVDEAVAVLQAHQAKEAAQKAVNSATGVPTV

[31] = target: T7, Polyadenylate-binding protein 1; experiment: MLLE binding blockers, Cy5 peptide tracer – biochemical, fluorescence polarization, Cy5-PAM2 peptide, secondary, miRNA deadenylation inhibitor project, dose response (AID 602260); assay type: functional; details: read-out: IC50_Mean

SMILES: c1ccc(-c2csc3ncnc(NCc4ccccn4)c23)cc1
- IC50 (HEK293 [1]): 6.34 µM (active)
- IC50 [2]: 3.2 µM (active)
- IC50 (HEK293 [3]): 16.3 µM (active)
- EC50 (HEK293 [4]): 3.17 µM (active)
- IC50 (HEK293 [5]): 11.5 µM (active)
- IC50 (Tumor necrosis factor): 4.23 µM (active)
- IC50 (HEK293 [6]): 7.16 µM (active)

SMILES: Cc1cc(NC(=O)CSc2nc(-c3ccccc3Cl)nc3c2c(=O)n(C)c(=O)n3C)no1
- EC50 [7]: > 99 µM (inactive)
- EC50 [8]: > 99 µM (inactive)

SMILES: COC(=O)CSc1nc2ccc(C)cc2cc1C#N
- EC50 [7]: > 99 µM (inactive)
- EC50 [8]: > 99 µM (inactive)

SMILES: Cc1ccc(NC(=O)c2ccccc2NS(=O)(=O)c2ccc(Cl)s2)cc1
- EC50 [9]: 20.5 µM (active)
- AC50 (INS1): 4.46 µM (active)
- EC50 [10]: 0.215 µM (active)
- EC50 [11]: 7.91 µM (active)
- EC50 [12]: > 180 µM (inactive)

SMILES: CCSc1nnc(NC(=O)C2CCCN(S(=O)(=O)c3c[nH]cn3)C2)s1 (stereo unspecified)
- IC50 [13]: > 67.5 µM (inactive)
- IC50 (HEK293 [14]): > 67.5 µM (inactive)

SMILES: Cc1cccc(-n2c(N)c(C(=O)N3CCN(C)CC3)sc2=S)c1
- IC50 [15]: > 100 µM (inactive)
- IC50 [16]: > 99 µM (inactive)
- IC50 [17]: 0.96 µM (active)
- IC50 [18]: 0.108 µM (active)
- IC50 [19]: 3.32 µM (active)
- IC50 [20]: 3.6 µM (active) and 8.47 µM (active) and > 100 µM (inactive)
- IC50 [21]: 4.7 µM (active)
- IC50 [22]: > 100 µM (inactive)
- IC50 [23]: 12.2 µM (active)
- IC50 [24]: > 99 µM (inactive)

SMILES: C(=C\c1ccccc1)/CN1CCN(c2ncnc3c2oc2ccccc23)CC1
- AC50 [25]: 1.98 µM (active)
- EC50 [9]: > 160 µM (inconclusive)
- AC50 [26]: 0.57 µM (active)
- AC50 [27]: 65.4 µM (active)
- EC50 [10]: 0.041 µM (active)
- EC50 [11]: > 160 µM (inactive)
- AC50 [28]: 25.9 µM (active)
- EC50 [12]: > 180 µM (inactive)
- AC50 [29]: 9.31 µM (active)

SMILES: Oc1c(/C=N/Cc2ccccc2)sc2ccccc12
- IC50 [30]: > 66 µM (inactive)
- IC50 [31]: > 66 µM (inactive)
- IC50 [13]: > 67.5 µM (inactive)
- IC50 (HEK293 [14]): > 22.5 µM (inactive)
